Assays:
[1] = molecular target: T1, PI3Kdelta (Homo sapiens, UniProt O00329); assay: TR-FRET kinetic competitive binding, Binding Kinetic Profiling mode; conditions: Tracer 314 5 nM, compound 250 nM to 0
T1 construct: purchased Carna Biosciences
Excerpt: X is time, expressed in min.
The present example illustrates the kinetic characterization of two different inhibitors against the same target by using the platform of the invention in the Binding Kinetic Profiling mode. […] The characterized Tracer^314 (Life Technologies) has been used as labeled ligand (tracer).
In order to determine the kinetic profile of these inhibitors (Kon, Koff, Kd and t1/2), experimental data were fitted to the “Kinetics of competitive binding”. This model describes the kinetic behavior of two compounds when compete for the binding to the same target.
The experiment is performed as described in Example 1 for the tracer characterization. The samples are prepared in the kinase buffer A at the same concentrations described in example 1 (PI3Kdelta at 0.5 nM and Eu-antiGST antibody at 2 nM). Control wells in the microplate with PI-103 inhibitor at 10 μM are also included to account for unspecific binding. […] These serial dilutions were prepared in a mother plate (at 2 times the assay concentration) and quickly dispensed to the analysis plate, being the last one disposed in the well the kinase PI3Kdelta.
The tracer concentration (L) is also constrained to the tracer concentration employed in the assay, i.e., 5 nM in the present example. […] The term t1/2 is calculated as −ln[0.5] divided by the K4 value.

[2] = molecular target: CDK8/Cyclin C (Homo sapiens, UniProt P49336); assay: TR-FRET kinetic competitive binding, Kinetic Selectivity Profiling mode; conditions: Tracer 236 10 nM, kinase 2 nM
Chain of CDK8/Cyclin C (P49336 whole entry, species assumed): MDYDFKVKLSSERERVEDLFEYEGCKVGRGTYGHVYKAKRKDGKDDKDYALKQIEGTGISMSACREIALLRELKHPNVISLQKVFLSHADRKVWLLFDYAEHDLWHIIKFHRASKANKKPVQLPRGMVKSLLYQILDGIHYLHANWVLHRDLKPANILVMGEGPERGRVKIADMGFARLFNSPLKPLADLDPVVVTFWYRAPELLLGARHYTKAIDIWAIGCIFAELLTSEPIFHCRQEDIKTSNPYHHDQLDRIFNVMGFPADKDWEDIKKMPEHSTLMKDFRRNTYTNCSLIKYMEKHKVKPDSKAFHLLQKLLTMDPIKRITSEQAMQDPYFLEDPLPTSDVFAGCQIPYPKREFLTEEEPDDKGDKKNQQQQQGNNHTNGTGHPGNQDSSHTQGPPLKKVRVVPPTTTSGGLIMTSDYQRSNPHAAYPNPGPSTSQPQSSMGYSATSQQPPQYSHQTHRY
Chain of CDK8/Cyclin C (P24863 whole entry partner, species assumed): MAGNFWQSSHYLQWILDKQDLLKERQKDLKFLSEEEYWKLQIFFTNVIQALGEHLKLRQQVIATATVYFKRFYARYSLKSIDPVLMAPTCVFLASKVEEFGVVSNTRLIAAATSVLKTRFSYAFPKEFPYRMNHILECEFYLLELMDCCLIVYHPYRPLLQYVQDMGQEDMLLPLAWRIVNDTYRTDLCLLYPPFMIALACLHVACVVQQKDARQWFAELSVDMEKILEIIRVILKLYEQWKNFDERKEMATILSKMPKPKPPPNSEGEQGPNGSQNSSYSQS
Excerpt: SQRT is the mathematical abbreviation for squared root. X is time, expressed in min.

T1 sequence (O00329 whole entry): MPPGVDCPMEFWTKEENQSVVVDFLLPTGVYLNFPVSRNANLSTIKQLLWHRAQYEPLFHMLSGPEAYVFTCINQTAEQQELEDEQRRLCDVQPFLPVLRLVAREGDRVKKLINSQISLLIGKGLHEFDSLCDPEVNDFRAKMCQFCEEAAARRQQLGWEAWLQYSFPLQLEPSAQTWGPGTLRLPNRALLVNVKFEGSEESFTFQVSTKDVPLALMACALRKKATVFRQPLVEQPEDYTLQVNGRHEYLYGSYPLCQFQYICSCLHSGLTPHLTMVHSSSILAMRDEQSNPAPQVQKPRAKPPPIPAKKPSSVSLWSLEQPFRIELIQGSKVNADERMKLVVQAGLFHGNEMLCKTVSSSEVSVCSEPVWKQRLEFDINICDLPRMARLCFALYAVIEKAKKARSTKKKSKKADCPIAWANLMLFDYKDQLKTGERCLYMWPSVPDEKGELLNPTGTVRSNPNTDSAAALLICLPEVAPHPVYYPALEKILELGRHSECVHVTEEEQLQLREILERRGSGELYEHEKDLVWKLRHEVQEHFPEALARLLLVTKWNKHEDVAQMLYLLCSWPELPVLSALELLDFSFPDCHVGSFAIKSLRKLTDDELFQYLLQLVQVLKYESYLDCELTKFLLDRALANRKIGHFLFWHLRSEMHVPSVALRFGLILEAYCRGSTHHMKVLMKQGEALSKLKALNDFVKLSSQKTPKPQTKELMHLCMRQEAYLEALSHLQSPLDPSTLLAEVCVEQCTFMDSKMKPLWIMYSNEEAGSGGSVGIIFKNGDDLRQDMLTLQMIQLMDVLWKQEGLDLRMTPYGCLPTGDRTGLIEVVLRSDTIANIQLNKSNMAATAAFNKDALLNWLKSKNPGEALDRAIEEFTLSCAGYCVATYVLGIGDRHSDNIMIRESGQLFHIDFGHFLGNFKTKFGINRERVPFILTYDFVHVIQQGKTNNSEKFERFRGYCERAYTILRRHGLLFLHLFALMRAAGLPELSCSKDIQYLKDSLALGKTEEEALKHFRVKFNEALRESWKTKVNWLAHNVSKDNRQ
T1 sequence (P27986 whole entry partner): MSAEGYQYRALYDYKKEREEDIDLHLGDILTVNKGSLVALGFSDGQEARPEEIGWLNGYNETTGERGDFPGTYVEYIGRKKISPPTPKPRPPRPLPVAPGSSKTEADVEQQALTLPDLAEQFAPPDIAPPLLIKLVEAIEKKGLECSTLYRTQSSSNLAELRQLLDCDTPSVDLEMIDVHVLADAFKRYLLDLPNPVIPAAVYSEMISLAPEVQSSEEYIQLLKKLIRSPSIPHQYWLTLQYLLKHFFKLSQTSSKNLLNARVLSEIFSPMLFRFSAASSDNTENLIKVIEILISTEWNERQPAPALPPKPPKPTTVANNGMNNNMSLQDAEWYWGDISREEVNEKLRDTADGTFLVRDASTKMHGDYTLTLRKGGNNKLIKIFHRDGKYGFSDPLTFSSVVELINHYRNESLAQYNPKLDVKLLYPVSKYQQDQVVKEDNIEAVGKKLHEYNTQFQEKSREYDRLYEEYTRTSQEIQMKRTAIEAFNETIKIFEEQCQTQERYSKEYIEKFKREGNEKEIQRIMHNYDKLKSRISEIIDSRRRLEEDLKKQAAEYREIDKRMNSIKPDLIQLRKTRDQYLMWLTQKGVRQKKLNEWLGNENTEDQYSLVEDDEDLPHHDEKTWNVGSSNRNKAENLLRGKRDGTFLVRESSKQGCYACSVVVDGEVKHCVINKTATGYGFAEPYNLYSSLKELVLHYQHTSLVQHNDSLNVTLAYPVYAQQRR

With `Cn1c(=O)n(-c2ccc(C(C)(C)C#N)cc2)c2c3cc(-c4cnc5ccccc5c4)ccc3ncc21` [BEZ235] the “dissociation from the target” value [1] was “mili-seconds”.
For `CN[C@@H]1C[C@H]2O[C@@](C)([C@@H]1OC)n1c3ccccc3c3c4c(c5c6ccccc6n2c5c31)C(=O)NC4` [Staurosporine], the “duration of the interaction with CDK8” value [2] was 20 min.
`COC[C@H]1OC(=O)c2coc3c2[C@@]1(C)C1=C(C3=O)[C@@H]2CCC(=O)[C@@]2(C)C[C@H]1OC(C)=O` [Wortmanine] was tested, and the “dissociative half-life of the complex with PI3Kdelta (t1/2)” value [1] was “around 300 min”.

Reference: patent US10261079B2, “Method for determining kinetic profiles in drug discovery” (priority 2015, dated 2019)
